# Measured values from patent publication US20250237648A1, “BACTERIAL BIOSENSORS FOR DIAGNOSING AND TREATING INFLAMMATION” (Baylor College of Medicine, priority 2022, published 2025).
# “And” between values parts separate entries of the source, which are not always exact repeats. Identical values can stand only once. Like-named read-outs stand apart in the source and are kept apart here.
# How the values were obtained:
# Type in all cases: cell-based, Escherichia coli Nissle 1917
# [1] = system: Pykg, Pent and Pabt promoter constructs; assay: TPEN induction of promoter-sfgfp constructs (fluorescence); conditions: M9 minimal medium
# Procedure: Selection of the ykgMO promoter to sense calprotectin levels. To assess the ykg, ent, and abt promoters as potential sensors of the metal sequestration activity of calprotectin, Pykg, Pent, and Paht were cloned into plasmid pColE1 driving the expression of superfolder GFP (sfgfp). Sensor fluorescence was next analyzed in M9 minimal medium and used metal chelator TPEN to mimic the metal depletion of calprotectin.
# EcN biosensor constructs were grown to early log phase (˜0.1 OD600) in M9 media with glucose, and were back diluted to 0.01 OD600 and then grown for ˜4 hours aerobically, until OD600 reached ˜0.15. At this point, cells were kept on ice until analysis on a Becton Dickinson FACScan flow cytometer. Flow cytometry runs were performed in 96 well plates. Briefly, 10-40 μL of cells were added to 1 mL of PBS sheath fluid and run through the flow cytometer for a total of 10000 events. Cells were thresholded on forward/side scatter, and .fsc files were analyzed with the FlowCal software. In short, FlowCal identifies the densest region of cells on the associated scatterplot, and analyzes the fluorescent output of 30% of the cells in this region so as to evaluate a homogenous dataset and remove possible outliers. […] In this case, sfGFP output is reported as molecules of equivalent fluorophores (MEF), and was evaluated on the FL1 channel. […]
# ykgMO, ent and abt genes = assay: RT-qPCR verification of calprotectin-responsive genes with TPEN; conditions: 30 μM TPEN, LB media, 30 minutes
# Description: FIGS. 1A-1K. Selection of the ykgMO promoter to sense calprotectin levels and sensitivity of ygkMO, ent and abt biosensors to metal starvation. 1A: Sensitivity of ykgMO (50S Ribosomal Protein L36/L31 type B) promoter (Pykg) biosensor to calprotectin; 1B-ID: Sensitivity of ent (1B), abt (1C), and ykg (1D) promoter constructs to TPEN in M9 media detected by Flow Cytometer; 1E: Minimum inhibitory concentration (MIC) of calprotectin on E. coli Nissile1917 (referred to EcN) in LB media; IF: Upregulation of calprotectin responsive promoters with TPEN induction in LB media verified by RT-qPCR; 1G: Sensitivity of ent promoter construct to TPEN in M9 media detected by plate reader; 1H: Sensitivity of abt promoter construct to TPEN in M9 media detected by plate reader; 1I: Sensitivity of ykg promoter construct to TPEN in M9 media detected by plate reader; 1J: Upregulation of calprotectin responsive ykgMO) promoter with TPEN induction in M9 media verified by RT-qPCR; 1K: Quenching of different ions on Pykg biosensor (EcN/pBSI0). Equimolar (1.5 μM) or 10×-excess (15 μM) of Zn^2+, Mn^2+, and Fe^2+ were added to Pykg biosensor co-cultured with 40 μg/mL calprotectin in M9 media. 1.5 μM (equivalent metal binding capacity of 40 μg/mL calprotectin), 3 μM, or 30 μM co-cultured with E. coli Nissle 1917 biosensors in pure culture. Calprotectin only-N=9. […]
# [2] = system: Pykg biosensor (EcN/pBSI0)
# Procedure: To validate that the Pykg is sensitive to zinc but not other metals bound by calprotectin, BSI0 was incubated with 40 μg/mL of calprotectin with or without supplementation of an equimolar amount of zinc, manganese, or iron.
# Mixes were similar to the calprotectin induction assays with the addition of zinc sulfate, manganese sulfate, or iron chloride. Concentrations of metals were added in excess of 1× and 10× the binding capacity of 40 μg/mL (1.5 μM) calprotectin. In total, 4 μM and 40 μM of zinc and iron were added, and 2 μM and 20 μM of manganese was added.
# ykg promoter = assay: Zur expression optimization for low basal expression of ykg promoter; conditions: zur driven by constitutive promoter on same plasmid
# Description: To increase the dynamic range of the Pykg expression, the high level of basal expression when the operon is not activated by zinc limitation needed to be reduced. It was considered that the basal level of expression was high because the ykg promoter was being expressed from a multicopy plasmid while the Zur repressor was being synthesized from the chromosome, altering their normal stoichiometry. To identify the optimal level of Zur to reduce the basal expression while maintaining the ability to respond to zinc limitation, several constructs were tested in which the zur gene was driven by constitutive promoters of increasing strength on the same plasmid as the ykg promoter (FIG. 2A) . . . . […] Other promoters were either too weak (J23113) to reduce the basal level of promoter expression or were too strong (J23100, J23110) to allow induction of the Pykg upon zinc depletion. Additional studies utilized the J23109 promoter construct, now denoted as pBSI1 (bacterial sensor of inflammation).
# To reduce the background of Pygk biosensor, zinc binding transcription factor Zur was inserted into pColE-based sensor construct (pColE1-Pykg-sfgfp) under the control of different constitutive expresison promoters. […] The sensitivity and expression strength of new biosensor constructs was analyzed through fluorescence detection and RT-qPCR.
# [3] = system: E. coli Nissle 1917 (EcN); assay: Minimum inhibitory concentration of calprotectin on EcN; conditions: 10^4 EcN cells, overnight, LB media, two-fold dilutions
# Procedure: Identification of E. coli Nissle promoters responsive to calprotectin. […] Currently, fecal calprotectin levels are used as a non-invasive way of monitoring intestinal inflammation, however compliance with such tests is low due to the need for patients to handle their own feces. Therefore, the development of an ingestible bacterial biosensor that would sense and report intestinal inflammation was contemplated. […] To do this the minimal inhibitory concentration of calprotectin incubated with EcN in vitro was first identified.
# (§1) It was considered that exposing EcN to a sub-inhibitory concentration of calprotectin that was near the MIC would yield the best opportunity to identify physiologically relevant promoters that respond to calprotectin. The minimal inhibitory concentration of calprotectin (250 μg/mL) was first identified using EcN growth in LB media (FIG. 1E). Therefore, EcN were grown into the mid-exponential phase in LB media and then treated cultures with 125 µg/mL of calprotectin for 30 minutes or without calprotectin as a negative control. As an additional control, a mutant version was used of calprotectin that lacks the ability to bind metals, rendering the protein unable to carry out nutritional immunity.
# To explore biosensor promoters that can respond to calprotectin, the transcriptome of EcN treated with the sub-inhibitory amount of calprotectin was analyzed. […]
# [4] = system: ATP-binding cassette transporter cluster (abt); assay: RNA sequencing of calprotectin-treated EcN: abt cluster; conditions: 125 μg/mL calprotectin 30 min, LB, over untreated cells
# Procedure: as §1
# (§2) For transcriptome analysis, EcN cells were grown overnight, and then back-diluted 1:100 into 5 mL of LB broth. When cells were grown up to the log phase, the sub-inhibitory amount of calprotectin was added to the cultures at a final concentration of 125 μg/mL. […] RNA was quantified and tested for purity using a Denovix spectrophotometer (Denovix, Wilmington, Delaware). RNA-seq was performed by Applied Biological Materials (ABM) (Richmond, British Columbia, Canada) on an Illumina NextSeq sequencer, at an average of 5 million reads per sample. rRNA depletion and quality check were also performed by ABM. […]
# [5] = system: ykgMO operon (50S Ribosomal Protein L36/L31 type B); assay: RNA sequencing of calprotectin-treated EcN: ykgMO operon; conditions: 125 μg/mL calprotectin 30 min, LB, over untreated cells
# Procedure: as §1, §2
# [6] = system: siderophore enterobactin operon (ent); assay: RNA sequencing of calprotectin-treated EcN: ent operon; conditions: 125 μg/mL calprotectin 30 min, LB, over untreated cells
# Procedure: as §1, §2
# [7] = 40 μg/mL calprotectin, equimolar metal, M9
molecule,measurement,setting,value
"c1ccc(CN(CCN(Cc2ccccn2)Cc2ccccn2)Cc2ccccn2)nc1 [TPEN, N,N,N′, N′-tetrakis(2-pyridinylmethyl)-1,2-ethanediamine]",activation of promoter constructs (sfGFP fluorescence) compared to control,[1],2-3 fold
same,gene upregulation by RT-qPCR,"ykgMO, ent and abt genes",upregulated
"O=S(=O)([O-])[O-].[Zn+2] [Zn, zinc sulfate]",repression of BSI0 activation in the presence of calprotectin,[2],totally repress the activation
"J23109: constitutive promoter (SEQ ID NO: 5) driving zur; construct denoted pBSI1 (DNA TTTACAGCTAGCTCAGTCCTAGGGACTGTGCTAGC; listed as DNA, chemistry not fully specified)",reduction of basal expression from the ykg promoter,ykg promoter,100 fold
"J23114: constitutive promoter (SEQ ID NO: 4) driving zur on the ykg promoter plasmid (DNA TTTATGGCTAGCTCAGTCCTAGGTACAATGCTAGC; listed as DNA, chemistry not fully specified)",reduction of basal expression from the ykg promoter,ykg promoter,100 fold
iron chloride [Fe],repression of BSI0 activation in the presence of calprotectin,[2]; [7],not
manganese sulfate [Mn],repression of BSI0 activation in the presence of calprotectin,[2]; [7],not
"calprotectin: Recombinant human calprotectin; neutrophil-source antimicrobial protein that sequesters zinc, manganese and iron (protein, UniProt P05109 1-93; P06702 1-114, looked up) Protein S100-A8: MLTELEKALNSIIDVYHKYSLIKGNFHAVYRDDLKKLLETECPQYIRKKGADVWFKELDINTDGAVNFQEFLILVIKMGVAAHKKSHEESHKE Protein S100-A9: MTCKMSQLERNIETIINTFHQYSVKLGHPDTLNQGEFKELVRKDLQNFLKKENKNEKVIEHIMEDLDTNADKQLSFEEFIMLMARLTWASHEKMHEGDEGPGHHHKPGLGEGTP",minimal inhibitory concentration of calprotectin,[3],256 µg/mL and 250 µg/mL
same,"Fold-Change in Gene Expression, ABC transporter cluster",[4],3.80-9.44 fold
same,"Fold-Change in Gene Expression, ykgMO",[5],up to 10.3 fold
same,"Fold-Change in Gene Expression, ykgMO",[5]; listed as Calprotectin,4.20-10.26 fold
same,"Fold-Change in Gene Expression, ent operon",[6],up to 4.8 fold
same,"Fold-Change in Gene Expression, ent operon",[6]; listed as Calprotectin,4.38-4.78 fold
